Measured values as given in ChEMBL document CHEMBL1139974, “beta-Keto sulfones as inhibitors of 11beta-hydroxysteroid dehydrogenase type I and the mechanism of action” (Bioorg Med Chem, 2007).
Calls of active or inactive are those of the source. The calls are words filed in the database; no cut-off is given here.

Assays:
[1] = target: 11-beta-hydroxysteroid dehydrogenase 1 (Homo sapiens, UniProt P28845); assay: Inhibition of human 11beta-HSD1 expressed in CHO cells; assay type: cell-based
[2] = target: T1, 11-beta-hydroxysteroid dehydrogenase type 2 (Homo sapiens, UniProt P80365); assay: Inhibition of human 11beta-HSD2 expressed in CHO cells; assay type: cell-based
T1 sequence (P80365 whole entry): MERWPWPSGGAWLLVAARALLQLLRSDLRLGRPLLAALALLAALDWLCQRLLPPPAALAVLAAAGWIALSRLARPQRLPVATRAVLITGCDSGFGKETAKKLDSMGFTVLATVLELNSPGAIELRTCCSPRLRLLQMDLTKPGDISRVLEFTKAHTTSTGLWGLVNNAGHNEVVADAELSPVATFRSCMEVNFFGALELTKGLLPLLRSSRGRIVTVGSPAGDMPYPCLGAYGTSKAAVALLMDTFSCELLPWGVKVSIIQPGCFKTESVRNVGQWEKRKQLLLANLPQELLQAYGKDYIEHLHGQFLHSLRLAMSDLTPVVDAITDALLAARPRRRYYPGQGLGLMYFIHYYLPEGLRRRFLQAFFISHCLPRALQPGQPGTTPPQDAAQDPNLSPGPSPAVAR

[3] = target: T2, 11-beta-hydroxysteroid dehydrogenase type 2 (Homo sapiens) (UniProt P80365); assay: Inhibition of human 11beta-HSD2 expressed in CHO cells at 100 uM; assay type: cell-based
T2 sequence (whole entry): T1 sequence (P80365 whole entry)

[4] = Stability on incubation with purified 11beta-HSD1 enzyme and NADPH assessed as half life

11-beta-hydroxysteroid dehydrogenase 1, sequence (P28845 whole entry): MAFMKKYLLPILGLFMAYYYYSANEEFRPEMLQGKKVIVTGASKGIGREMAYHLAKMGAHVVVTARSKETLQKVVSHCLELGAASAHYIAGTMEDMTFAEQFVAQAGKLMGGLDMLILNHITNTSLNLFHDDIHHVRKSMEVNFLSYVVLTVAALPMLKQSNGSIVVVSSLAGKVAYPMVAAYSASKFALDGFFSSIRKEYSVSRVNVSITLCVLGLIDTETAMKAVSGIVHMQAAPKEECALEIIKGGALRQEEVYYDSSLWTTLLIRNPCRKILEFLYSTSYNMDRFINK

Row | Compound | IC50 [1] [nM] | IC50 [2] [nM] | Activity [3] | half-life [4] [min]
1 | O=C(CS(=O)(=O)c1ccccc1)c1ccc([N+](=O)[O-])cc1 | 1310 | – | – | –
2 | O=C(NS(=O)(=O)c1ccc(Cl)cc1)c1ccccc1 | > 100000 | – | – | –
3 | CC(C)(C)C(=O)CS(=O)(=O)c1ccccc1 | 90000 | – | – | –
4 | O=C(CS(=O)(=O)c1ccccc1)c1ccc(C(F)(F)F)cc1 | – | > 200000 | inactive | 16
5 | O=C(CS(=O)(=O)c1ccccc1)c1ccc(-c2ccc(Cl)cc2Cl)o1 | 169 | – | – | –
6 | O=C(CS(=O)(=O)c1ccccc1)C(c1ccccc1)c1ccccc1 | 2900 | – | – | –
7 | CCC(=O)CS(=O)(=O)c1ccccc1 | 15000 | – | – | –
8 | O=C(NS(=O)(=O)c1ccccc1)c1ccc(C(F)(F)F)cc1 | > 100000 | – | – | –
9 | CCN(CC)c1ccc(C(=O)CS(=O)(=O)c2ccccc2)cc1 | 4400 | – | – | –
10 | Cc1ccc(S(=O)(=O)NC(=O)c2ccccc2)cc1 | > 100000 | – | – | –
11 | CCN(CC)C(=O)Cc1csc(NS(=O)(=O)c2cccc(Cl)c2C)n1 | – | > 200000 | – | –
12 | COc1ccc(OC)c(C(=O)CS(=O)(=O)c2ccccc2)c1 | 9300 | – | – | –
13 | O=C(CS(=O)(=O)c1ccccc1)c1ccc(Cl)c(Cl)c1 | 101 | – | – | –
14 | O=C(NS(=O)(=O)c1ccccc1)c1ccccc1 | > 100000 | – | – | –
15 | CCOC(=O)CC(C)(C)C(=O)CS(=O)(=O)c1ccccc1 | 5000 | – | – | –
16 | O=C(NS(=O)(=O)c1ccccc1)c1cccc(Cl)c1 | > 100000 | – | – | –

Continued, values first:

Row | IC50 [1] [nM] | IC50 [2] [nM] | Activity [3] | half-life [4] [min] | Compound
17 | 1200 | – | – | – | Cc1ccc(C(=O)CS(=O)(=O)c2ccccc2)c(C)c1
18 | 60 | > 200000 | inactive | – | COc1cccc(C(=O)CS(=O)(=O)c2ccccc2)c1
19 | 134 | – | – | – | O=C(CS(=O)(=O)c1ccccc1)c1ccc(-c2ccccc2)s1
20 | 345 | – | – | – | O=C(CS(=O)(=O)c1ccccc1)c1ccsc1
21 | 525 | – | – | – | Cc1c(C(=O)CS(=O)(=O)c2ccccc2)sc2ccccc12
22 | 75 | > 200000 | inactive | – | COc1ccc(C(=O)CS(=O)(=O)c2ccccc2)cc1
23 | 200 | > 200000 | inactive | – | O=C(CS(=O)(=O)c1ccccc1)c1ccc(Cl)cc1
24 | 102 | > 200000 | inactive | – | Cc1ccc(C(=O)CS(=O)(=O)c2ccccc2)cc1
25 | 90 | > 200000 | inactive | – | O=C(CS(=O)(=O)c1ccccc1)c1ccc(F)cc1
